According to patent publication US20120129875A1, “SUBSTITUTED QUINAZOLINES AS FUNGICIDES” (SYNGENTA CROP PROTECTION, LLC, priority 2009, published 2012):

Columns and labels:
Assay type in all cases: in vivo
[1] = test system: Erysiphe necator (Uncinula necator); assay: Erysiphe necator (Uncinula necator) / grape / preventative (powdery mildew on grape); conditions: grape seedlings cv. Gutedel, inoculated 1 day after application, vs untreated control, read-out: disease control
Procedure: Erysiphe necator (Uncinula necator)/Grape/Preventative (Powdery Mildew on Grape) 5-week old grape seedlings cv. Gutedel are treated with the formulated test compound in a spray chamber. The test plants are inoculated by shaking plants infected with grape powdery mildew above them 1 day after application. The inoculated test plants are incubated at 24/22° C. (day/night) and 70% rh under a light regime of 14/10 h (light/dark) and the percentage leaf area covered by disease is assessed when an appropriate level of disease appears on untreated check plants (7-9 days after application).

Phytophthora infestans = assay: whole plant or invertebrate; conditions: in Solanum tuberosum, read-out: disease control
Plasmopara viticola = Plasmopara viticola / grape / preventative (grape downy mildew); conditions: grape seedlings cv. Gutedel, inoculated one day after application, vs untreated control, read-out: disease control
Procedure: Plasmopara viticola/Grape/Preventative (Grape Downy Mildew)
5-week old grape seedlings cv. Gutedel are treated with the formulated test compound in a spray chamber. The test plants are inoculated by spraying a sporangia suspension on their lower leaf surface one day after application. The inoculated test plants are incubated at 22° C. and 100% rh in a greenhouse and the percentage leaf area covered by disease is assessed when an appropriate level of disease appears on untreated check plants (6-8 days after application).

[2] = test system: Pyrenophora teres (Helminthosporium teres); assay: Pyrenophora teres (Helminthosporium teres) / barley / preventative (net blotch on barley); conditions: barley plants cv. Regina, inoculated 2 days after application, vs untreated control, read-out: disease control
Procedure: Pyrenophora teres (Helminthosporium teres)/Barley/Preventative (Net Blotch on Barley) 1-week old barley plants cv. Regina are treated with the formulated test compound in a spray chamber. The test plants are inoculated by spraying them with a spore suspension 2 days after application. The inoculated test plants are incubated at 20° C. and 95% rh and the percentage leaf area covered by disease is assessed when an appropriate level of disease appears on untreated check plants (5-7 days after application).

[3] = test system: Botryotinia fuckeliana (Botrytis cinerea); assay: Botryotinia fuckeliana (Botrytis cinerea) / tomato / preventative (Botrytis on tomato); conditions: tomato plants cv. Roter Gnom, inoculated two days after application, vs untreated control, read-out: disease control
Procedure: (§1) Botryotinia fuckeliana (Botrytis cinerea)/Tomato/Preventative (Botrytis on Tomato) 4-week old tomato plants cv. Roter Gnom are treated with the formulated test compound in a spray chamber. The test plants are inoculated by spraying them with a spore suspension two days after application. The inoculated test plants are incubated at 20° C. and 95% rh in a greenhouse and the percentage leaf area covered by disease is assessed when an appropriate level of disease appears on untreated check plants (5-6 days after application).

[4] = test system: Mycosphaerella arachidis (Cercospora arachidicola); assay: Mycosphaerella arachidis (Cercospora arachidicola) / peanut / preventative; conditions: peanut plants cv. Georgia Green, inoculated one day after application, vs untreated control, read-out: disease control
Procedure: Mycosphaerella arachidis (Cercospora arachidicola)/Peanut/Preventative 3-week old peanut plants cv. Georgia Green are treated with the formulated test compound in a spray chamber. The test plants are inoculated by spraying them with a spore suspension on their lower leaf surface one day after application. After an incubation period of 4 days under a plastic hood at 23° C. and 100% rh, the test plants are kept at 23° C./20° C. (day/night) and 70% rh in a greenhouse. The percentage leaf area covered by disease is assessed when an appropriate level of disease appears on untreated check plants (12-14 days after application).

Alternaria solani = Alternaria solani / tomato / preventative (Alternaria on tomato); conditions: tomato plants cv. Roter Gnom, inoculated two days after application, vs untreated control, read-out: disease control
Procedure: as §1, with “Alternaria solani/Tomato/Preventative (Alternaria” for “Botryotinia fuckeliana (Botrytis cinerea)/Tomato/Preventative (Botrytis”, “22/18°” for “20°”, “C. (day/night)” for “C.”, “(5-7” for “(5-6”

[5] = test system: Phaeosphaeria nodorum (Septoria nodorum); assay: Phaeosphaeria nodorum (Septoria nodorum) / wheat / leaf disc preventative (glume blotch); conditions: Parastagonospora nodorum, foliar, wheat leaf segments cv. Kanzler on agar, inoculated 2 days after application, vs untreated control, read-out: disease control
Summary of the method: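 Wheat cv. Kanzler leaf segments on agar sprayed with formulated compound in water, inoculated with spore suspension 2 days later. Incubated at 20° C., 75% rh, 12 h light/12 h dark; percent disease control versus untreated scored when untreated discs show damage (5-7 days after application).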

[6] = test system: Mycosphaerella graminicola (Septoria tritici); assay: Mycosphaerella graminicola (Septoria tritici) / wheat / preventative (Septoria tritici leaf spot on wheat); conditions: Zymoseptoria tritici, wheat plants cv. Riband, inoculated one day after application, vs untreated control, read-out: disease control
Procedure: Mycosphaerella graminicola (Septoria tritici)/Wheat/Preventative (Septoria tritici Leaf Spot on Wheat) 2-week old wheat plants cv. Riband are treated with the formulated test compound in a spray chamber. The test plants are inoculated by spraying a spore suspension on them one day after application. After an incubation period of 1 day at 22° C./21° C. (day/night) and 95% rh, the test plants are kept at 22° C./21° C. (day/night) and 70% rh in a greenhouse. The percentage leaf area covered by disease is assessed when an appropriate level of disease appears on untreated check plants (16-19 days after application).

Measured: pest or weed control at 200 ppm

Cc1cc(F)ccc1-c1cccc(-c2ncc3ccccc3n2)n1 [2/55]
not listed: [5] | [6]
≥ 80%: all other assays above

COc1cccc(-c2cccc(-c3ncc4ccccc4n3)n2)c1F [2/60]
≥ 80%: [5] | Phytophthora infestans | Plasmopara viticola | [3] | Alternaria solani

Cc1ccc(-c2ncc3ccccc3n2)nc1-c1ccccc1 [3/71]
not listed: [1] | [4] | [5]
≥ 80%: all other assays above

Cc1ccc(-c2ncc3ccccc3n2)nc1-c1ccc(F)cc1 [3/72]
≥ 80%: Phytophthora infestans | Plasmopara viticola | [2] | [3] | Alternaria solani

Cc1cccc(-c2nc(-c3ncc4ccccc4n3)ccc2C)c1 [3/75]
not listed: [2] | [5]
≥ 80%: all other assays above

Cc1ccccc1-c1nc(-c2ncc3ccccc3n2)ccc1C [3/76]
not listed: [1] | [5]
≥ 80%: all other assays above

Cc1ccc(-c2ncc3ccccc3n2)nc1-c1cccc(F)c1 [3/77]
≥ 80%: [6] | Phytophthora infestans | Plasmopara viticola | Alternaria solani

Cc1cc(-c2nc(-c3ncc4ccccc4n3)ccc2C)ccc1F [3/85]
not listed: [5]
≥ 80%: all other assays above

Cc1ccc(-c2ncc3ccccc3n2)nc1-c1ccc(F)c(F)c1 [3/89]
not listed: Phytophthora infestans | [5]
≥ 80%: all other assays above

Cc1ccc(-c2ncc3ccccc3n2)nc1-c1cc(F)cc(F)c1 [3/90]
not listed: [5]
≥ 80%: all other assays above

COc1ccc(-c2nc(-c3ncc4ccccc4n3)ccc2C)cc1F [3/92, 2-[6-(3-fluoro-4-methoxy-phenyl)-5-methylpyridin-2-yl]-quinazoline]
not listed: [5]
≥ 80%: all other assays above

Cc1ccc(-c2ncc3ccccc3n2)nc1Oc1ccccc1 [5/18]
≥ 80%: Phytophthora infestans | Plasmopara viticola | [2] | [3] | Alternaria solani

Cc1cccc(Cc2cccc(-c3ncc4ccccc4n3)n2)c1F [6/12]
not listed: Phytophthora infestans | Plasmopara viticola | [5]
≥ 80%: all other assays above

c1ccc(Cc2cccc(-c3ncc4ccccc4n3)n2)cc1 [6/17, 2-(6-benzylpyridin-2-yl)-quinazoline]
not listed: [5] | [6]
≥ 80%: all other assays above

Cc1ccc(-c2ncc3ccccc3n2)nc1Cc1ccccc1 [7/17]
≥ 80%: [6] | Phytophthora infestans | [4] | Alternaria solani
